Here are results for three compounds from patent US20240067702A1, “LACTAM-MODIFIED P[…]” (DONGBAO PURPLE STAR (HANGZHOU) BIOPHARMACEUTICAL CO., LTD., priority 2020, published 2024).

The target of one data set is T1, GLP-1R (Homo sapiens, UniProt P43220).
T1 construct: host or cells: HEK293
Put plainly: GLP-1R agonist activity test in vitro (cAMP assay). It counts as cell-based. The conditions noted are these: HEK293 host cell. As to the method:
(§1) The cell strains were constructed by Shanghai WuXi AppTec.
(§2) The test compound was serially diluted 4-fold with 10 points. The initial concentration was 30 μM, and the dilution was completed with Bravo.
(§3) 1) 100 nL of the compound was transferred to OptiPlate-384 plate using Echo.
(§4) 7) The GLP-1R/GIPR cell concentration was diluted to 2.0*10^5/mL with the experimental buffer.
(§5) 8) […] of the diluted cell suspension was transferred into the OptiPlate-384 plate.
(§6) 9) The diluted cell suspension was incubated at room temperature for 30 minutes.
(§7) 2) 10 μL of cAMP detection reagent was added.
(§8) 3) The OptiPlate-384 plate was covered with TopSeal-A film and incubated at room temperature for 60 minutes.
(§9) TopSeal-A was removed and read in EnVision.
(In general: Cyclic AMP is a second messenger, typically raised through Gs and lowered through Gi signalling.)

In the next data set the target is T2, GIPR (Homo sapiens, UniProt P48546).
T2 construct: host or cells: CHO
T2 sequence (P48546 22-466): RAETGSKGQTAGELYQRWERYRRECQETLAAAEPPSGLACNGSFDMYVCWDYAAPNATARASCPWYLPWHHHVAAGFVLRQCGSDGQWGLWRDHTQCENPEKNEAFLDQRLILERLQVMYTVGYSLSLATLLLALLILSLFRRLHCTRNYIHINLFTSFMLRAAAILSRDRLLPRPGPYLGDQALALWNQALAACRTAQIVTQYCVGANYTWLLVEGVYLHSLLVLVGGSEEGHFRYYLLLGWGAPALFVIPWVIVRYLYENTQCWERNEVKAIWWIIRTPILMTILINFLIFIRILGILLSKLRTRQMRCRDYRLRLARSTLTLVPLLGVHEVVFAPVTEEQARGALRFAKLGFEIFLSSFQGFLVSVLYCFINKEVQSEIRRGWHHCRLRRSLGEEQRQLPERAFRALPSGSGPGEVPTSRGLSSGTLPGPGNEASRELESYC
Put plainly: GIPR agonist activity test in vitro (cAMP assay). In kind it is cell-based. The conditions noted are these: CHO host cell. The protocol: as §1, §2, §3, §4, §5, §6, §7, §8, §9

Data set [1] in a line: Pharmacokinetic evaluation in SD rats. As to conditions: rat, plasma, 0.048 mg/kg, single SC 0.048 mpk; for half-life: read-out: Half-life T1/2 (converted); for Cmax: read-out: Maximum Plasma Concentration; for AUC(0-t): read-out: SC Concentration Integral AUC0-72 h. It counts as in vivo. The protocol: To test the pharmacokinetics of compounds in SD rats in vivo
The pharmacokinetic characteristics of the compounds in rodents after subcutaneous injection were tested according to the standard protocol. In the experiment, the candidate compounds were formulated into clear solutions, and a single subcutaneous injection (SC, 0.048 mpk) was given to the rats. The injection vehicle was citrate buffer (20 mM, pH=7). Whole blood was collected and prepared to obtain plasma. Drug concentration was analyzed by LC-MS/MS method, and pharmacokinetic parameters were calculated by Phoenix WinNonlin software.

A short description of data set [2]: Plasma stability (PLS) test, mouse plasma. It counts as in vitro ADME. The conditions noted are these: pH 7.4, 37° C., up to 120 min, read-out: PLS (H/M) T1/2. As to the method:
To study the stability of test compounds in the plasma of normal mice.
1. Before the experiment, the coagulated frozen plasma was thawed in a water bath at 37° C. Plasma was centrifuged at 4000 rpm for 5 min. If there was blood clot, the blood clot was removed and the pH value was adjusted to 7.4±0.1.
2. Preparation of the test compound solution: 100 μM of the solution was prepared by dilution with DMSO.
3. 98 μL of blank control plasma was added to 2 μL of the test compound solution (100 μM), so that the final concentration of the mixed solution of the two reached 2 μM, and the mixed solution was placed in a 37° C. water bath for incubation.
4. At each time point (0, 10, 30, 60, and 120 min), 1(X) μL of H3PO4 solution and 800 μL of stop solution (200 ng/mL of tolbutamide and 200 ng/mL of labetalol in 100% methanol solution) were added to precipitate protein, and mixed thoroughly.
5. The samples were centrifuged at 4000 rpm for 20 min, and 1(X) μL of supernatant was taken from each well for LC-MS/MS analysis.

Data set [3] in a line: Plasma protein binding (PPB) test, mouse. In kind it is in vitro ADME. As to conditions: pH 7.4, ultracentrifugation. The protocol:
To study the binding of the test compounds to human/mouse plasma albumin.
1. Matrix preparation: On the day of the experiment, the plasma was thawed in cold water and centrifuged at 3220 rpm for 5 min to remove all blood clots. The pH of the obtained plasma was measured and adjusted to 7.4±0.1 using 1% phosphoric acid or 1N sodium hydroxide as needed.
2. Dilution steps of the test compounds: The test compounds were dissolved in dimethyl sulfoxide (DMSO) to prepare stock solutions at concentrations of 10 mM and 2 mM, respectively. A 40 μM working solution was prepared by diluting 2 μL of the stock solution (2 mM) with 98 μL of DMSO. A 400 μM working solution of the control compound was prepared by diluting 10 μL of the stock solution with 240 μL of DMSO. The working solution of the compound (5 μL) was mixed with the blank matrix (995 μL) at a ratio of 1:200 to prepare the loading matrix.
3.1 An equal amount of 30 μL of the loading matrix (n=2) was transferred to the sample collection plate to prepare samples of time 0 (TO) for residue determination. The samples were immediately matched to the corresponding blank buffer in a final volume of 60 μL with a 1:1 volume ratio of plasma to buffer in each well. Then, 60 μL of 4% H3PO4 in H2O and 480 μL of stop solution containing an internal standard were then added to the TO samples of the test compounds. They were then stored at 2-8° C. with other samples pending for further processing.
3.2 The remaining plasma samples were pre-incubated in a carbon dioxide incubator at 37±1° C. for 30 min. The prepared protein-free samples (F samples) and loading matrix samples (230 μL) were transferred to polycarbonate tubes (n=2) and ultracentrifuged at 37° C. and 155000×g (35000 rpm) for 4 hours.
3.3 To prepare T samples (test samples), an additional matrix-containing sample was transferred to a separate 96-well plate (sample incubation plate) and incubated at 37° C. for 4 hours.
3.4 After centrifugation, 30 μL of protein-free sample and 30 μL of T sample were transferred from the second layer of supernatant (below the upper layer) to a new sample collection plate. Each sample was mixed with the corresponding blank buffer or matrix in a final volume of 60 μL with a matrix:buffer volume ratio of 1:1. 60 μL of 4% H3PO4 aqueous solution and 480 μL of stop solution (containing internal standard) were added to all samples. The mixture was centrifuged at 4000 rpm for 20 min, and 100 μL of the supernatant of each sample was taken for LC-MS/MS analysis.

[4] abbreviates: GLP-IR Agonist Activity EC50 (−) 1% HSA, without 1% HSA.
The mark [5] stands for this setting: GIPR Agonist Activity EC50 (−) 1% HSA, without 1% HSA.

*1 amine or outer side, *2 acyl side, *3 side chain or, on linkers, in order; H or OH if unused. Where a SMILES comes first, the peptide text is derived from it. Bridges are numbered along the chain shown (N, C = ends). Side-chain parts run from the residue outwards. [ ]: non-standard residue; d: D form. The star is where a group is joined. C20 diacid = O=C(O)CCCCCCCCCCCCCCCCCCC(=O)*; γGlu = O=C(O)[C@H](CCC(=O)[*:2])N[*:1]; AEEA = NCCOCCOCC(=O)O; Aib = CC(C)(N)C(=O)O

T1 sequence (P43220 24-463): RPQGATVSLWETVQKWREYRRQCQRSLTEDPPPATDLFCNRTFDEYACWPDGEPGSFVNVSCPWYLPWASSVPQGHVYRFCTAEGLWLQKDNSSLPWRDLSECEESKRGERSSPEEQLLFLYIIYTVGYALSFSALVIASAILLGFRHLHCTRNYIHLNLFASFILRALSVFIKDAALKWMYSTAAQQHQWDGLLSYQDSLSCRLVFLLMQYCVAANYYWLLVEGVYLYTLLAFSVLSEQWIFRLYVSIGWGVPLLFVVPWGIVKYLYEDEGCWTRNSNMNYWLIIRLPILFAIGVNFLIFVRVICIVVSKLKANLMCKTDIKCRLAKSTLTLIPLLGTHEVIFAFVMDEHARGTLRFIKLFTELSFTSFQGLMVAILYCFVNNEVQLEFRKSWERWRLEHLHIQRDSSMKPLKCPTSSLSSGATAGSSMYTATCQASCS

Turning to `CC[C@H](C)[C@H](NC(=O)[C@H](CC(C)C)NC(=O)[C@H](Cc1c[nH]c2ccccc12)NC(=O)[C@@H]1CCC(=O)NCCCC[C@H](NC(=O)[C@H](CCC(N)=O)NC(=O)[C@H](C)NC(=O)[C@H](CCCCNC(=O)COCCOCCNC(=O)COCCOCCNC(=O)CC[C@H](NC(=O)CCCCCCCCCCCCCCCCCCC(=O)O)C(=O)O)NC(=O)[C@H](CCCCN)NC(=O)[C@H](CC(=O)O)NC(=O)[C@H](CC(C)C)NC(=O)C(C)(C)NC(=O)[C@@H](NC(=O)[C@H](CO)NC(=O)[C@H](Cc2ccc(O)cc2)NC(=O)[C@H](CC(=O)O)NC(=O)[C@H](CO)NC(=O)[C@@H](NC(=O)[C@H](Cc2ccccc2)NC(=O)[C@@H](NC(=O)CNC(=O)[C@H](CCC(=O)O)NC(=O)C(C)(C)NC(=O)[C@@H](N)Cc2ccc(O)cc2)[C@@H](C)O)[C@@H](C)O)[C@@H](C)CC)C(=O)N[C@@H](C)C(=O)N[C@@H](Cc2ccccc2)C(=O)N[C@@H]([C@@H](C)CC)C(=O)N1)C(=O)N[C@@H](C)C(=O)NCC(=O)NCC(=O)N1CCC[C@H]1C(=O)N[C@@H](CO)C(=O)N[C@@H](CO)C(=O)NCC(=O)N[C@@H](C)C(=O)N1CCC[C@H]1C(=O)N1CCC[C@H]1C(=O)N1CCC[C@H]1C(=O)N[C@@H](CO)C(N)=O` [WX-006] (H-Y[Aib]EGTFTSDYSI[Aib]LDKK([AEEA-AEEA-γGlu-C20 diacid])AQKAFIEWLIAGGPSSGAPPPS-NH2; lactam 20-24), the EC50 (as a rule, the concentration giving half of the maximal effect) on GLP-1R (setting [4]) worked out at 0.051 nM. Moreover, on GIPR (setting [5]), the 50% effective concentration (EC50) came out at 0.45 nM. Also, in data set [1], the half-life was 600 min, the Cmax was found to be 16 nM and the AUC(0-t) came out at 0.846 µM·h. Also, in data set [2], the half-life at 2 μM was over 289 min. For the same compound, the fraction unbound (as a rule, free concentration divided by total concentration) at 4 h, 0.2 μM in data set [3] is 0.0035.
Compound `CC[C@H](C)[C@H](NC(=O)[C@H](CC(C)C)NC(=O)[C@H](Cc1c[nH]c2ccccc12)NC(=O)[C@@H]1CCC(=O)NCCCC[C@H](NC(=O)[C@H](CCC(N)=O)NC(=O)[C@H](C)NC(=O)[C@H](CCCCNC(=O)COCCOCCNC(=O)COCCOCCNC(=O)CC[C@H](NC(=O)CCCCCCCCCCCCCCCCCCC(=O)O)C(=O)O)NC(=O)[C@H](CCCCN)NC(=O)[C@H](CC(=O)O)NC(=O)[C@H](CC(C)C)NC(=O)C(C)(C)NC(=O)[C@@H](NC(=O)[C@H](CO)NC(=O)[C@H](Cc2ccc(O)cc2)NC(=O)[C@H](CC(=O)O)NC(=O)[C@H](CO)NC(=O)[C@@H](NC(=O)[C@H](Cc2ccccc2)NC(=O)[C@@H](NC(=O)CNC(=O)[C@H](CCC(=O)O)NC(=O)C(C)(C)NC(=O)[C@@H](N)Cc2ccc(O)cc2)[C@@H](C)O)[C@@H](C)O)[C@@H](C)CC)C(=O)N[C@@H](CCC(=O)O)C(=O)N[C@@H](Cc2ccccc2)C(=O)N[C@@H](C(C)C)C(=O)N1)C(=O)N[C@@H](C)C(=O)NCC(=O)NCC(=O)N1CCC[C@H]1C(=O)N[C@@H](CO)C(=O)N[C@@H](CO)C(=O)NCC(=O)N[C@@H](C)C(=O)N1CCC[C@H]1C(=O)N1CCC[C@H]1C(=O)N1CCC[C@H]1C(=O)N[C@@H](CO)C(N)=O` [WX-005] (H-Y[Aib]EGTFTSDYSI[Aib]LDKK([AEEA-AEEA-γGlu-C20 diacid])AQKEFVEWLIAGGPSSGAPPPS-NH2; lactam 20-24) gave an EC50 on GLP-1R (setting [4]) of 0.042 nM. Moreover, on GIPR (setting [5]), the EC50 was 0.22 nM. Further, in data set [1], the half-life was 1020 min, the Cmax is 14 nM and the AUC(0-t) was 1.33 µM·h. Also, the half-life at 2 μM in data set [2] is over 289 min. This compound also had a fraction unbound at 4 h, 0.2 μM in data set [3] of 0.0022.
`CC[C@H](C)[C@H](NC(=O)[C@H](CC(C)C)NC(=O)[C@H](Cc1c[nH]c2ccccc12)NC(=O)[C@@H]1CCC(=O)NCCCC[C@H](NC(=O)[C@H](CCC(N)=O)NC(=O)[C@H](C)NC(=O)[C@H](CCCCNC(=O)COCCOCCNC(=O)COCCOCCNC(=O)CC[C@H](NC(=O)CCCCCCCCCCCCCCCCCCC(=O)O)C(=O)O)NC(=O)[C@H](CCCCN)NC(=O)[C@H](CC(=O)O)NC(=O)[C@H](CC(C)C)NC(=O)C(C)(C)NC(=O)[C@@H](NC(=O)[C@H](CO)NC(=O)[C@H](Cc2ccc(O)cc2)NC(=O)[C@H](CC(=O)O)NC(=O)[C@H](CO)NC(=O)[C@@H](NC(=O)[C@H](Cc2ccccc2)NC(=O)[C@@H](NC(=O)CNC(=O)[C@H](CCC(=O)O)NC(=O)C(C)(C)NC(=O)[C@@H](N)Cc2ccc(O)cc2)[C@@H](C)O)[C@@H](C)O)[C@@H](C)CC)C(=O)N[C@@H](C)C(=O)N[C@@H](Cc2ccccc2)C(=O)N[C@@H](C(C)C)C(=O)N1)C(=O)N[C@@H](C)C(=O)NCC(=O)NCC(=O)N1CCC[C@H]1C(=O)N[C@@H](CO)C(=O)N[C@@H](CO)C(=O)NCC(=O)N[C@@H](C)C(=O)N1CCC[C@H]1C(=O)N1CCC[C@H]1C(=O)N1CCC[C@H]1C(=O)N[C@@H](CO)C(N)=O` [WX-001] (H-Y[Aib]EGTFTSDYSI[Aib]LDKK([AEEA-AEEA-γGlu-C20 diacid])AQKAFVEWLIAGGPSSGAPPPS-NH2; lactam 20-24): the EC50 at GLP-1R (GLP-IR Agonist Activity EC50 (+) 1% HSA, with 1% HSA) stood at 3.66 nM; on GLP-1R (setting [4]) it was 0.014 nM; on GIPR (GIPR Agonist Activity EC50 (+) 1% HSA, with 1% HSA), 23 nM; at GIPR (setting [5]), 0.44 nM. The half-life in data set [1] is 720 min. For the same compound, the Cmax in data set [1] came to 22 nM. The AUC(0-t) in data set [1] was found to be 0.728 µM·h. Further, in data set [2], the half-life at 2 μM was over 289 min.
